One assay has as its target PFKFB3 (Homo sapiens (Human), UniProt Q16875). Put plainly: PFKFB3 kinase activity, Method A (F-2,6-P2 production, coupled PPi-PFK/NADH assay). The class given is biochemical. From the text:
(§1) The PFKFB3 (placenta form) and PFKFB4 were produced and purified to homogeneity from E. coli at Biovitrum and at Sprint Bioscience. All other reagents were purchased from commercial sources. Two independent methods have been used for determination of the kinase activity of PFKFB3 (Method A and Method B). Method B has been used for determination of the kinase activity of PFKFB4.
Method A: The kinase activity of the bi-functional enzyme is readily quantified based on the production of F-2,6-P2 as described by Van Schaftingen et al. (1982) Eur. J. Biochem. 129, 191-5. This sensitive assay is based on the potent activation of pyrophosphate dependent phosphofructokinase-1 (PPi-PFK) from potato tubers by F-2,6-P2. The use of a series of coupled enzymes leads to a consumption of NADH (nicotinamide adenine dinucleotide) that can be followed spectrophotometrically (an updated protocol is available in Van Schaftingen, (1984) Methods of Enzymatic Analysis (Bergmeyer, H. U., ed.), 3rd edn., vol. 6, pp. 335-341, Verlag Chemie, Weinheim). A protocol for measurements in 96-well microtiter plate format is also available (Bruni et al., (1989) Anal. Biochem. 178, 324-6). These assay protocols have been adopted for the measurement of the kinase activity of PFKFB3 with some modifications as described in the protocol below.
The assay was run in 96-well microtiter plates (Costar 3365 round bottom polypropylene) by consecutive additions of 30 μl each of a test compound solution (diluted from a DMSO stock solution), a PFKFB3 solution and a substrate (fructose-6-phosphate (F6P) and adenosine-5′-triphosphate (ATP)) containing solution. […] The final concentrations of all reagents in a total assay volume of 90 μl per well were: • 50 mM Tris-acetate at pH 8.0 • 0.1 mM EDTA (ethylene diamine tetraacetic acid) • 10 mM MgCl2 • 5 mM Na2HPO4 (buffered by the Tris-acetate to a final pH of 8.0) • 5 nM PFKFB3 • 4 μM ATP • 100 μM F6P (acid treated and then neutralized to remove any contaminating F-2,6-P2; see Van Schaftingen, 1984) • 1 mM dithiothreitol (DTT) • 0.005% Tween-20
A test compound at various concentrations (which also added 0.83% DMSO to the final solution)
The enzymatic reaction was allowed to proceed for 10 minutes at room temperature while on a plate shaker at medium speed (750 RPM). The reaction was then terminated by the addition of 90 μl of a 0.4 M NaOH solution to all wells. The plate was then placed on the plateshaker at the same speed for two minutes to allow sufficient mixing. All samples were then diluted by a factor of 10 by transferring 20 μl from each well to the corresponding well of a new plate with 180 μl distilled water predispensed to all wells.
The next step in the protocol was quantification of the levels of F-2,6-P2 in each well of the microtiter plate. This was done by transferring 20 μl of the content in each well to the corresponding position in a new plate (Nunc 269620 transparent 96-well plate). […] To ensure that all measured values were within the linear range of the response (measured to be between 0-1 nM of F-2,6-P2 as also described by Van Schaftingen) the same volume of a 2.5 nM and a 5.0 nM standard sample were also added to column 12 (as all samples were diluted five-fold in the assay procedure this corresponds to 0.5 and 1.0 nM samples). The procedure then involved consecutive additions of three solutions with the following premixed components: • Assay-mix (20 μl): Tris-acetate at pH 8.0, NADH and Mg(OAc)2 • PPi/F6P-mix (40 μl): Pyrophosphate and F6P • Enzyme-mix (20 μl): Tris-acetate at pH 8.0, aldolase, triose phosphate isomerase, glycerol-3-phosphate dehydrogenase, pyrophosphate-dependent phosphofructokinase from potato tubers and bovine serum albumin (BSA) […]

Another assay deals with PFKFB4 (Homo sapiens (Human), UniProt Q16877). Put plainly: PFKFB4 kinase activity, Method B (ADP-Glo Kinase Assay). The class given is biochemical.
Source text: as §1
Method B: The kinase activity of the bi-functional enzyme is readily quantified based on the production of ADP and F-2,6-P2 from ATP and F6P. The ADP is detected with a kit, ADP-Glo™ Kinase Assay^(a-e), from Promega. The assay is a luminescent ADP detection assay that measures kinase activity by quantifying the amount of ADP produced during the kinase reaction. The assay is performed in two steps; first, after the kinase reaction, an equal volume of ADP-Glo™ Reagent is added to terminate the kinase reaction and deplete the remaining ATP. Second, the Kinase Detection Reagent is added to simultaneously convert ADP to ATP and allow the newly synthesized ATP to be measured using a luciferase/luciferine reaction. The light generated is measured using a luminescence counter (1450 MicroBeta TriLux).
The assay was performed in white 384-well microtiter plates (OptiPlate, 6007299, PerkinElmer) by consecutive additions of 0.1 μL of a test compound solution (serial diluted in DMSO from compound DMSO stock solution and dispensed by acoustic dispensing from UV-star 384-well plate 7360153, VWR), 5 μL of enzyme solution and 5 μL of a substrate (fructose-6-phosphate (F6P) and adenosine-5′-triphosphate (ATP)) containing solution. […] Four reference dose response curves, one of them being the QC compound, were included in row O1-2, P1-2, and serial diluted as the test compounds. The final concentrations of all reagents in a total assay volume of 10.1 μL per well were: • 50 mM Tris-HCl at pH 8.0 • 10 mM MgCl2 • 5 mM Na2HPO4 at pH 8.0 • 81.48 nM PFKFB3 or 145 nM PFKFB4 • 8 μM ATP • 100 μM F6P (acid treated and then neutralized to remove any contaminating F-2,6-P2; see Van Schaftingen, 1984) • 0.005% Tween-20 • 1 mM dithiothreitol (DTT) • A test compound at various concentrations or controls (final DMSO concentration 0.99%)
Enzyme, compounds and controls were pre-incubated at room temperature for 15 min before the addition of substrate solution. The enzymatic reaction was allowed to proceed for 20 min (PFKFB3) or 40 min (PFKFB4) at room temperature. The reaction was terminated by the addition of 10 μL of ADP-Glo™ Reagent to all wells and the plate was incubated for 40 min at room temperature. After addition of 20 μL Kinase Detection Reagent to all wells the plate was incubated for 30 min at room temperature, followed by measurement in 1450 MicroBeta TriLux. All plates were centrifuged after each addition (room temperature, short spin, 500 RPM, Megafuge 1.0 Heraeus Instruments).
The inhibitory potency or IC50 values of test compounds on the kinase activity of PFKFB3 or PFKFB4 were calculated using a four-parameter model (model 205) in XLfit (IDBS ActivityBase XE Runner).
On the technique in general: In ADP-Glo the light output rises with the ADP produced.

The structures appear in SMILES notation.

These results are taken from patent publication US9233946B2, “Sulfonamide compounds” (KANCERA AB, priority 2010, dated 2016).

Sequence of PFKFB3 (Q16875 whole entry): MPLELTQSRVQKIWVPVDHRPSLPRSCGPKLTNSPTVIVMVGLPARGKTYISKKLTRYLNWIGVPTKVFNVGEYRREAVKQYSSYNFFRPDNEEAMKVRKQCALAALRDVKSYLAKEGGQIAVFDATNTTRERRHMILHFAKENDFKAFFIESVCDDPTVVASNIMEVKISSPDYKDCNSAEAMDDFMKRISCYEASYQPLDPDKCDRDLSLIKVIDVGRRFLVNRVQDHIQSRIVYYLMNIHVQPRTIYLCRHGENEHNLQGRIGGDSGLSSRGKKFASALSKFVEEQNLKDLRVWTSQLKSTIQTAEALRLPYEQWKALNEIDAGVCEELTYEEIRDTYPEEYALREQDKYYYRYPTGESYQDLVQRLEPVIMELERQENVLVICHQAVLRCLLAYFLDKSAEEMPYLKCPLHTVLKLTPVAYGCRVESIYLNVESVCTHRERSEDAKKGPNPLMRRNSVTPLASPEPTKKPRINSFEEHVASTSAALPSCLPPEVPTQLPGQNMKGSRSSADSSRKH
Sequence of PFKFB4 (Q16877 whole entry): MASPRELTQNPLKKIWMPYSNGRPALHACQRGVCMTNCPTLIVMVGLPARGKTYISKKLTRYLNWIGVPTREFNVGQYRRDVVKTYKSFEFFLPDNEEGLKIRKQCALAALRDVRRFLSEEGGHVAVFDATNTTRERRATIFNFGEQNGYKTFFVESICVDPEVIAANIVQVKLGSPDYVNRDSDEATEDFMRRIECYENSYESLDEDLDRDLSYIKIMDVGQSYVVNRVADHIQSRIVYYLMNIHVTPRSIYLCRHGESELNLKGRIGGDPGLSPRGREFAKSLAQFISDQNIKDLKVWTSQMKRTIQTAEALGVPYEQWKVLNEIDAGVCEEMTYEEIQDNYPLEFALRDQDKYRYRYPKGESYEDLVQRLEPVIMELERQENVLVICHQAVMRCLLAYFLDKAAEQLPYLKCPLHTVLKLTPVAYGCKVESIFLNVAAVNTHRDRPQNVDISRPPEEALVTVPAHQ

Take `Cc1c(S(=O)(=O)Nc2cccc(C(=O)O)c2)sc2ccc(C(C)C)cc12` [Example 5, 3-{[(5-Isopropyl-3-methyl-1-benzothien-2-yl)sulfonyl]amino}benzoic acid]: the IC50 – broadly, the concentration that gives 50% inhibition – worked out at 30 nM against PFKFB3 and 60 nM against PFKFB4.
For `Cc1c(S(=O)(=O)Nc2cccc(C(=O)O)c2)sc2ccc(Cl)cc12` [Example 38, 3-{[(5-Chloro-3-methyl-1-benzothien-2-yl)sulfonyl]amino}benzoic acid], in that order: 180 nM and 130 nM.
